According to ChEMBL document CHEMBL5233220, “A review of currently identified small molecule modulators of microRNA function” (Eur J Med Chem, 2020):
Values joined by “and” are separate entries in the source; they are usually repeats but may differ in a detail not shown here. Identical values can stand only once. Counter-ions that a name gives are not always drawn.

Legend:
Protein lin-28 homolog A = target: T1, Protein lin-28 homolog A (Homo sapiens, UniProt Q9H9Z2); assay: Inhibition of LIN28A (unknown origin) by FRET assay
T1 sequence (Q9H9Z2 whole entry): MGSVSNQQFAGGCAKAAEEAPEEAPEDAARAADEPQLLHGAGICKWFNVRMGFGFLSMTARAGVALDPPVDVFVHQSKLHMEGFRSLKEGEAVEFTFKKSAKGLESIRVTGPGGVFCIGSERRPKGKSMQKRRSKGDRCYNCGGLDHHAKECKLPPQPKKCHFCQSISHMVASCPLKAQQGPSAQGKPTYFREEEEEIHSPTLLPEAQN

[1] = Inhibition of miR-27a (unknown origin) maturation at 5 uM relative to control
[2] = Inhibition of miR-122 (unknown origin) by luciferase assay
Huh-7 = assay: Inhibition of miR-122 in human Huh-7 cells relative to control; assay type: cell-based; conditions: dose or concentration not given here
[3] = Inhibition of miR-122 (unknown origin) assessed as relative light unit by luciferase assay
[4] = Binding affinity to pre-miR-21 (unknown origin) at A bulge assessed as dissociation constant by dicer assay
[5] = Binding affinity to pre-miR-21 (unknown origin) assessed as dissociation constant by fluorescence-based assay
Protein argonaute-2 = Protein argonaute-2 (Homo sapiens, UniProt Q9UKV8); assay: Inhibition of AGO2 (unknown origin)
[6] = Inhibition of pre-miR-21 (unknown origin) by FP assay
[7] = Inhibition of pre-miR-373 (unknown origin) at 250 uM by FRET assay relative to control
[8] = Inhibition of pre-miR-372 (unknown origin) by FRET assay
[9] = Inhibition of pre-miR-373 (unknown origin) by FRET assay
[10] = Binding affinity to pre-miR-373 (unknown origin) assessed as dissociation constant
[11] = Binding affinity to pre-miR-21 (unknown origin) assessed as dissociation constant by microarray assay
[12] = Binding affinity to miR-96 (unknown origin) assessed as dissociation constant; design: species or system Homo sapiens
BCL1 = assay: Inhibition of cell growth in mouse BCL1 cells; assay type: functional, cell-based
[13] = Binding affinity to pre-miR-21 (unknown origin) assessed as melting temperature by differential scanning fluorimetry analysis
[14] = Activation of miR-122 (unknown origin) assessed as relative light unit by luciferase assay; conditions: filed as activator

Sequence of Protein argonaute-2 (Q9UKV8 whole entry): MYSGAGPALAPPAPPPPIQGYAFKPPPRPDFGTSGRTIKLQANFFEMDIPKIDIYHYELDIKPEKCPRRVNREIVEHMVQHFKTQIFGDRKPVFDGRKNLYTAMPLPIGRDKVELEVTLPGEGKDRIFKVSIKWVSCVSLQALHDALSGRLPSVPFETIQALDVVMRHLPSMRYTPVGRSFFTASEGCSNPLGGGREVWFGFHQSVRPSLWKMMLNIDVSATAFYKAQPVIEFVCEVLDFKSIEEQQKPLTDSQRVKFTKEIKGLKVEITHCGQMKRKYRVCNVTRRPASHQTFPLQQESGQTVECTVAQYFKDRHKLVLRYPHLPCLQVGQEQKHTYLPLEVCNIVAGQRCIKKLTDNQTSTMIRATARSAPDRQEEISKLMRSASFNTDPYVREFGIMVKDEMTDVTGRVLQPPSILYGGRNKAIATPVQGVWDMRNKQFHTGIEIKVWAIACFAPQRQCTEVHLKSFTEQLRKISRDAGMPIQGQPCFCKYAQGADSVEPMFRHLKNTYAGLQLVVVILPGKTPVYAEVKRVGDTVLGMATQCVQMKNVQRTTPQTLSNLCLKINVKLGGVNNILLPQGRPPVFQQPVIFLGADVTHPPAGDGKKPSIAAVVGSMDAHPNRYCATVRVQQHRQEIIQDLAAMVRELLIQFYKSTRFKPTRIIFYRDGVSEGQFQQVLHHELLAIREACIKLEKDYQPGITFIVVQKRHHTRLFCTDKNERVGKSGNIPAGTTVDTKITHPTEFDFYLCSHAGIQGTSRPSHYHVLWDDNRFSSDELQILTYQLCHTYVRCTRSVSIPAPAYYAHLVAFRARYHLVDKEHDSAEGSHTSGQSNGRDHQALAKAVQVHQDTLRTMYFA

CC1(C)Oc2cc(N3CCN(C(=O)OCc4ccccc4)CC3)c([N+](=O)[O-])cc2-c2c1cnn2-c1ccc(C(=O)O)cc1
IC50 (Protein lin-28 homolog A): 4.03 µM

CC(=O)N(C)c1cccc(-c2ccc3nnc(C)n3n2)c1
IC50 (Protein lin-28 homolog A): 8 µM

NC[C@H]1O[C@H](O[C@H]2[C@H](O)[C@@H](O[C@H]3O[C@H](CO)[C@@H](O)[C@H](N)[C@H]3O)[C@H](N)C[C@@H]2N)[C@H](O)[C@@H](O)[C@@H]1O
inhibition [1]: 25%

O=C(Nc1ccc2ccccc2c1)c1ccc(Cl)cc1Cl
IC50 [2]: 3 µM
inhibition (Huh-7): 48%
Activity [3]: 7.73 RLU

COc1cccc2c1C(=O)c1c(O)c3c(c(O)c1C2=O)C[C@@](O)(C(=O)CO)C[C@@H]3O[C@H]1C[C@H](N)[C@@H](O)[C@H](C)O1 [EPIRUBICIN]
Kd [4]: 0.024 µM

C/C(=N\NC(=O)c1ccccn1)c1c(C)[nH]n(-c2ccccc2)c1=O
Kd [5]: 109 µM

Cc1ccc(C(=O)Nc2ccc(S(=O)(=O)O)c3cc(S(=O)(=O)O)cc(S(=O)(=O)O)c23)cc1NC(=O)c1cccc(NC(=O)Nc2cccc(C(=O)Nc3cc(C(=O)Nc4ccc(S(=O)(=O)O)c5cc(S(=O)(=O)O)cc(S(=O)(=O)O)c45)ccc3C)c2)c1 [SURAMIN]
IC50 (Protein argonaute-2): 0.69 µM

NC(Cc1cc(O)c(O)cc1O)C(=O)O (stereo unspecified)
IC50 [6]: 7.05 µM

O=S(=O)(Nc1ccccc1)c1ccc2c(c1)CCCN2
Activity [3]: 9.9 RLU

NC[C@@H]1O[C@H](O[C@H]2[C@@H](O)[C@H](O[C@@H]3[C@@H](O)[C@H](N)C[C@H](N)[C@H]3O[C@H]3O[C@H](CN)[C@@H](O)[C@H](O)[C@H]3N)O[C@@H]2n2cc(CCC(=O)NCC(=O)Nc3nc4ccccc4[nH]3)nn2)[C@H](N)[C@@H](O)[C@@H]1O
inhibition [7]: 20%
IC50 [8]: 10.3 µM
IC50 [9]: 8.57 µM

NC[C@@H]1O[C@H](O[C@H]2[C@@H](O)[C@H](O[C@@H]3[C@@H](O)[C@H](N)C[C@H](N)[C@H]3O[C@H]3O[C@H](CN)[C@@H](O)[C@H](O)[C@H]3N)O[C@@H]2n2cc(CCc3nc4cc(NC(=O)Nc5ccccc5)ccc4o3)nn2)[C@H](N)[C@@H](O)[C@@H]1O
Kd [10]: 0.014 µM
inhibition [7]: 20%
IC50 [8]: 4.17 µM
IC50 [9]: 0.54 µM

CCCCNC(=O)Nc1cccc(-c2cn(Cc3cn([C@H]4O[C@@H](O[C@@H]5[C@@H](O)[C@H](N)C[C@H](N)[C@H]5O[C@H]5O[C@H](CN)[C@@H](O)[C@H](O)[C@H]5N)[C@H](O)[C@@H]4O[C@H]4O[C@@H](CN)[C@@H](O)[C@H](O)[C@H]4N)nn3)cn2)c1
inhibition [7]: 20%
IC50 [8]: 25.6 µM
IC50 [9]: 17.3 µM

O=C(O)c1ccc2nc3c4c(O)ccc(O)c4c(=O)c(Cl)c-3oc2c1
IC50 [6]: 4.71 µM

OC(CNc1cccc(Cl)c1)Cn1c2ccc(Br)cc2c2cc(Br)ccc21 (stereo unspecified)
Kd [11]: 1.2 µM and 0.8 µM

CCOc1ccc(NCC(O)Cn2c3ccc(Br)cc3c3cc(Br)ccc32)cc1 (stereo unspecified)
Kd [11]: 1.2 µM

CCCN(CC(=O)N(CCC)CC(=O)N(CC(=O)NCCCNCCCNC(=O)c1csc(-c2csc(CCNC(=O)[C@@H](NC(=O)[C@@H](C)[C@H](O)[C@@H](C)NC(=O)[C@@H](NC(=O)c3nc([C@H](CC(N)=O)NC[C@H](N)C(N)=O)nc(N)c3C)[C@@H](O[C@@H]3O[C@@H](CO)[C@@H](O)[C@H](O)[C@@H]3O[C@H]3O[C@H](CO)[C@@H](O)[C@H](OC(N)=O)[C@@H]3O)c3c[nH]cn3)[C@@H](C)O)n2)n1)Cc1cn(CCCNC(=O)CCCOc2c(C(C)(C)C)cc(-c3nc4ccc(N5CCN(C)CC5)cc4[nH]3)cc2C(C)(C)C)nn1)C(=O)CCCOc1cccc(-c2nc3ccc(-c4nc5ccc(N6CCN(C)CC6)cc5[nH]4)cc3[nH]2)c1
Kd [12]: 0.064 µM

CCOc1cccc2c1N[C@@H](c1ccc(C(=O)O)cc1)[C@H]1CC=C[C@@H]21
IC50 (Protein lin-28 homolog A): 7 µM

O=c1cc(N2CCC(N3CCCC3)CC2)c2ccccc2o1
Kd [5]: 23 µM

COc1cccc2c1C(=O)c1c(O)c3c(c(O)c1C2=O)C[C@@](O)(C(=O)CO)C[C@@H]3O[C@H]1C[C@H](N)[C@H](O)[C@H](C)O1 [DOXORUBICIN]
Kd [4]: 0.058 µM

O=[N+]([O-])c1ccc2nc(-c3ccccc3O)nc(-c3ccccc3)c2c1
EC50 (BCL1): 20 µM

N=C(N)NCc1ccc(Oc2ccccc2)cc1
IC50 (Protein argonaute-2): > 1000 µM

NC[C@@H]1O[C@H](O[C@H]2[C@@H](O)[C@H](O[C@@H]3[C@@H](O)[C@H](N)C[C@H](N)[C@H]3O[C@H]3O[C@H](CN)[C@@H](O)[C@H](O)[C@H]3N)O[C@@H]2CO)[C@H](N)[C@@H](O)[C@@H]1O [FRAMYCETIN]
inhibition [7]: 100%
IC50 [8]: 125 µM
inhibition [1]: 25%
IC50 [9]: 178 µM

NC[C@@H]1O[C@H](O[C@H]2[C@@H](O)[C@H](O[C@@H]3[C@@H](O)[C@H](N)C[C@H](N)[C@H]3O[C@H]3O[C@H](CN)[C@@H](O)[C@H](O)[C@H]3N)O[C@@H]2n2cc(Cn3cnc(-c4cccc(NC(=O)c5ccccc5)c4)c3)nn2)[C@H](N)[C@@H](O)[C@@H]1O
inhibition [7]: 20%
IC50 [8]: 8.3 µM
IC50 [9]: 8.96 µM

NCCc1cc(O)c(O)cc1O [OXIDOPAMINE HYDROCHLORIDE]
IC50 (Protein argonaute-2): 1.61 µM

Cc1ccccc1NCC(O)Cn1c2ccc(Br)cc2c2cc(Br)ccc21 (stereo unspecified)
Kd [11]: 2.3 µM
Tm [13]: -5.1 °C

OC(CNc1ccc(N2CCOCC2)cc1)Cn1c2ccc(Br)cc2c2cc(Br)ccc21 (stereo unspecified)
Kd [11]: 2.1 µM

CCCN(CC(=O)N(CCC)CC(=O)N(CC(N)=O)Cc1cn(CCCNC(=O)CCCOc2c(C(C)(C)C)cc(-c3nc4cc(N5CCN(C)CC5)ccc4[nH]3)cc2C(C)(C)C)nn1)C(=O)CCCOc1cccc(-c2nc3ccc(-c4nc5ccc(N6CCN(C)CC6)cc5[nH]4)cc3[nH]2)c1
Kd [12]: 0.2 µM

CCCCCCNS(=O)(=O)c1ccc2c(c1)CCCN2
Activity [3]: 11.9 RLU

O=[N+]([O-])c1ccc2nc(-c3ccccc3)nc(-c3ccccc3)c2c1
EC50 (BCL1): 20 µM

COc1ccc(NCC(O)Cn2c3ccc(Br)cc3c3cc(Br)ccc32)cc1 (stereo unspecified)
Kd [11]: 0.7 µM and 0.8 µM
Tm [13]: -2.3 °C

CC(=O)c1ccc(C(=O)Nc2ccc3ccccc3c2)cc1
Activity [3]: 6.7 RLU

COc1ccccc1CCNC1CC(=O)C(c2ccc(C)cc2)C1=O (stereo unspecified)
Kd [5]: 38 µM

NC[C@H]1O[C@H](O[C@H]2[C@H](O)[C@@H](O[C@H]3O[C@H](CO)[C@@H](O)[C@H](N)[C@H]3O)[C@H](N)C[C@@H]2N)[C@H](N)C[C@@H]1O
inhibition [1]: 10%

O=S(=O)(c1ccc2c(c1)CCCN2)N1CCC[C@H]2CCCC[C@@H]21
IC50 [2]: 0.6 µM
inhibition (Huh-7): 47%
Activity [3]: 0.6 RLU

c1ccc(CN(CCN(Cc2ccccn2)Cc2ccccn2)Cc2ccccn2)nc1
IC50 (Protein lin-28 homolog A): 2.5 µM

CN(C)CCN1C(=O)c2cccc3cccc(c23)C1=O
Activity [14]: 0.18 RLU

O=C(Nc1ccc2ccccc2c1)c1ccc([N+](=O)[O-])cc1
Activity [3]: 6.2 RLU

CN[C@@H]1[C@H](O[C@H]2[C@H](O[C@H]3[C@H](O)[C@@H](O)[C@H](N=C(N)N)[C@@H](O)[C@@H]3N=C(N)N)O[C@@H](C)[C@]2(O)C=O)O[C@@H](CO)[C@H](O)[C@H]1O
inhibition [1]: 25%

CCCOc1ccc(NCC(O)Cn2c3ccc(Br)cc3c3cc(Br)ccc32)cc1 (stereo unspecified)
Kd [11]: 2.2 µM

CCCCNC(=O)Nc1ccc2oc(CCc3cn([C@H]4O[C@@H](O[C@@H]5[C@@H](O)[C@H](N)C[C@H](N)[C@H]5O[C@H]5O[C@H](CN)[C@@H](O)[C@H](O)[C@H]5N)[C@H](O)[C@@H]4O[C@H]4O[C@@H](CN)[C@@H](O)[C@H](O)[C@H]4N)nn3)nc2c1
inhibition [7]: 20%
IC50 [8]: 16.3 µM
IC50 [9]: 20.8 µM

O=[N+]([O-])c1ccc2nc(-c3ccccc3[N+](=O)[O-])nc(-c3ccccc3)c2c1
EC50 (BCL1): 20 µM
